Laboratory results as given in paper PMC8279156, “Design, synthesis, HER2 inhibition and anticancer evaluation of new substituted 1,5-dihydro-4,1-benzoxazepines” (Journal of Enzyme Inhibition and Medicinal Chemistry, 2021).
Like-named read-outs stand apart in the source and are kept apart here.

Tests used:
[1] = test system: MCF-7 human breast cancer cell line; details: cited from earlier work
[2] = molecular target: isolated HER2 (Homo sapiens, UniProt P04626); assay: HER2 inhibition assay, radiometric protein kinase assay (33PanQinase Activity Assay); assay type: biochemical; details: isolated HER2, radiometric assay, 10 concentrations in singlicate
Procedure: The IC50 profile of the target compounds was determined using isolated HER2. IC50 values were measured by testing 10 concentrations (1 × 10 ^−4 M to 3 × 10 ^−9 M) of each compound in singlicate. A radiometric protein kinase assay (33PanQinase® Activity Assay) was used for measuring the kinase activity of HER2. The assay was performed in 96-well FlashPlatesTM from PerkinElmer (Boston, MA) in a 50 µl reaction volume. […] The reaction cocktails were incubated at 30 °C for 60 min. The reaction was halted with 50 µl of 2% (v/v) H3PO4, plates were aspirated and washed two times with 200 µl 0.9% (w/v) NaCl. Incorporation of ^33Pi was determined with a microplate scintillation counter (Microbeta, Wallac, Waltham, MA).
Human epidermal growth factor receptor 2 (HER2) is overexpressed in about 20% of all breast cancers. […] This prompted us to evaluated compounds 7–9 for their in vitro HER2 inhibitory effect. The IC50 profile of the target compounds was determined against isolated HER2 using a radiometric assay (Table 1).

[3] = test system: A-375 human melanoma cancer cell line; assay: Proliferation assay (sulphorhodamine-B) in A-375; assay type: cell-based; details: 72 h of treatment, mean ± SD, read-out: IC50 A375
Procedure: MCF-7, HCT-116, A-375 and SKBR cells were grown at 37 °C in an atmosphere containing 5% CO2, with Dulbecco’s modified Eagle Medium (DMEM) (Gibco, Grand Island, NY) supplemented with 10% heat-inactivated foetal bovine serum (FBS) (Gibco), 2% L-glutamine, 2.7% sodium bicarbonate, 1% Hepes buffer, 40 mg/L gentamicin and 500 mg/L ampicillin.
Compounds were dissolved in DMSO and stored at −20 °C. For each experiment, the stock solutions were further diluted in medium to obtain the desired concentrations. The final solvent concentration in cell culture was ≤ 0.1% v/v of DMSO, a concentration without any effect on cell replication. Parallel cultures of MCF-7, HCT-116, A375 and SKBR-3 cells in medium with DMSO were used as controls.
The effect of the compounds on cell viability was assessed using the sulphorhodamine-B colorimetric assay. Cells suspension (1 × 10^3 cells/well) were seeded onto 24-well plates and incubated for 24 h. The cells were then treated with different concentrations of drugs in their respective culture medium and maintained with the treatment for 3 days. Three days later, wells were aspirated and fresh medium and drug were added. Then cell cultures were maintained for 3 additional days. Thereafter, a Titertek Multiscan (Flow, Irvine, CA) at 492 nm was used. The linearity of the SRB assay was evaluated with a cell number for each cell stock before each cell growth experiment. The IC50 values were calculated from semi-logarithmic dose–response curves by linear interpolation. All the experiments were plated in triplicate wells and were carried out twice.
We then investigated the effects of the target compounds on cell proliferation on the human breast cancer cell lines MCF-7 and SKBR-3, the human colon carcinoma cell line HCT-116 and the human malignant melanoma cell line A-375. The antiproliferative activity of 7–9 was evaluated using sulphorhodamine-B colorimetric assay after 72 h of treatment (Table 3).
All experiments were conducted in duplicate and gave similar results. The data are mean ± SD of three independent determinations. MCF-7: human breast cancer cell line; SKBR3: human breast cancer cell line; HCT-116: human colon cancer cell line and A-375: human melanoma cancer cell line.

[4] = test system: HCT-116 human colon cancer cell line; set-up: method as in PMID 21126804; details: mean ± SD; cited from earlier work
[5] = test system: SKBR3 human breast cancer cell line; set-up: method as in PMID 24946763; details: mean ± SD; cited from earlier work

Chain of isolated HER2 (P04626 23-1255): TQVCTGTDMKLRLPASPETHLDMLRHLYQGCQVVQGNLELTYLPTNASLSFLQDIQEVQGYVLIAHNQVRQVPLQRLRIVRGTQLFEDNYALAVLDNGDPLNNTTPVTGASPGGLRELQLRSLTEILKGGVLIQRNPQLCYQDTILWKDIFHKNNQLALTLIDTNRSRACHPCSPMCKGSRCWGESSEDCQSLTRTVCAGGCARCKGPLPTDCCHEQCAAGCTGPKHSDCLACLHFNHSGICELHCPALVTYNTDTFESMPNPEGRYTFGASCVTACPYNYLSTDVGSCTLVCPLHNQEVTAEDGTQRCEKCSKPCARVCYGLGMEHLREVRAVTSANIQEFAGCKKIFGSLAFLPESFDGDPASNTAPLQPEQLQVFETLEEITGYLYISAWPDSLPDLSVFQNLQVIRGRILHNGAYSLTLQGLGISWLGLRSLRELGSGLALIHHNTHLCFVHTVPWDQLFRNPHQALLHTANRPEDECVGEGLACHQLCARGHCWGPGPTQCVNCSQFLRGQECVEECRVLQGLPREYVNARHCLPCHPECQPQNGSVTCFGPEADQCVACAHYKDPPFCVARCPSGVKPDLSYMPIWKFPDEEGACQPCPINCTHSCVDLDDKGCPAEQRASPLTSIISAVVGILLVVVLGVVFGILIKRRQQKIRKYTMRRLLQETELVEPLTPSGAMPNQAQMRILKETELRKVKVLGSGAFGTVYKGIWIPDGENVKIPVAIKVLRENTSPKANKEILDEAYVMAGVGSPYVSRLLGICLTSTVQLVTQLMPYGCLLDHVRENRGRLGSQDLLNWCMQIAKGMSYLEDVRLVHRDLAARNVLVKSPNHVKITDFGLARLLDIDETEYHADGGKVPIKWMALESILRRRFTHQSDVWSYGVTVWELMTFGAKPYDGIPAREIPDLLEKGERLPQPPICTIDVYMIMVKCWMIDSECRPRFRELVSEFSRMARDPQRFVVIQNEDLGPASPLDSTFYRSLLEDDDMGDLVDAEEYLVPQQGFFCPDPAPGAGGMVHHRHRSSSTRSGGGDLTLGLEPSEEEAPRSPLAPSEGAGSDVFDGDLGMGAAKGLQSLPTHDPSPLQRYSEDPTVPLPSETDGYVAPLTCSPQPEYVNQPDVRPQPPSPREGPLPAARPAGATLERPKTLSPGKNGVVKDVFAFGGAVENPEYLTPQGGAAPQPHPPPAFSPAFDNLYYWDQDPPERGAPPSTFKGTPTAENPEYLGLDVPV

## O=[N+]([O-])c1ccc(S(=O)(=O)N2CC(n3cnc4c(Cl)nc(Cl)nc43)OCc3ccccc32)cc1 (racemic) [Compound 3, (RS)-2,6-dichloro-9-[1-(p-nitrobenzenesulfonyl)-1,2,3,5-tetrahydro-4,1-benzoxazepine-3-yl]-9H-purine]
[1]; mean ± SD, read-out: IC50 MCF-7
  IC50: 350 ± 10 nM
[1]; previously described compounds, introduction, no reference number printed at the values, read-out: IC50 against the MCF-7 cell line
  IC50: 355 nM
[2]
  IC50: 27900 nM
[3]
  IC50: 1050 ± 10 nM
[4]
  IC50: 570 ± 20 nM
[5]
  IC50: 330 nM
